These results are taken from PMC2864539 (Cancer research, 2010).

For one assay, the target named is T1, ovine COX-1 (Ovis aries, UniProt P05979).
T1 sequence (P05979 25-600): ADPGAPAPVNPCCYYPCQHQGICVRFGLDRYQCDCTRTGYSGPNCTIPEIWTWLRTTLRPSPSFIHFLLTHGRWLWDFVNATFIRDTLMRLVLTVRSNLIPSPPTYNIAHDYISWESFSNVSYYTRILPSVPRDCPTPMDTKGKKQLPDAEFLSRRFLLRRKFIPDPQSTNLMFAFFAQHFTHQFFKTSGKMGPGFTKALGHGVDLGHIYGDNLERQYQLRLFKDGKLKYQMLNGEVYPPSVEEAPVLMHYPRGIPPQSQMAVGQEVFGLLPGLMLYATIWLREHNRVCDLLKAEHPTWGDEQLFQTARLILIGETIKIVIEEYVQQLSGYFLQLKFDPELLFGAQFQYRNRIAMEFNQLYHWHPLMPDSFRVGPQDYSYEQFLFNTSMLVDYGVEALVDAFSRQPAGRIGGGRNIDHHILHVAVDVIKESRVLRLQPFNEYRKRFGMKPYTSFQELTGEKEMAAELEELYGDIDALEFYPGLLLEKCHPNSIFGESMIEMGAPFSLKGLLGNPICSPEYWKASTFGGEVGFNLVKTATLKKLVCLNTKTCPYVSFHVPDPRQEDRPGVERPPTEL
Nature of the assay: [[…]-14C]arachidonic acid conversion, radio-TLC. Type of assay: biochemical.

Another assay addresses T2, human COX-2 (Homo sapiens, UniProt P35354).
T2 sequence (P35354 18-604): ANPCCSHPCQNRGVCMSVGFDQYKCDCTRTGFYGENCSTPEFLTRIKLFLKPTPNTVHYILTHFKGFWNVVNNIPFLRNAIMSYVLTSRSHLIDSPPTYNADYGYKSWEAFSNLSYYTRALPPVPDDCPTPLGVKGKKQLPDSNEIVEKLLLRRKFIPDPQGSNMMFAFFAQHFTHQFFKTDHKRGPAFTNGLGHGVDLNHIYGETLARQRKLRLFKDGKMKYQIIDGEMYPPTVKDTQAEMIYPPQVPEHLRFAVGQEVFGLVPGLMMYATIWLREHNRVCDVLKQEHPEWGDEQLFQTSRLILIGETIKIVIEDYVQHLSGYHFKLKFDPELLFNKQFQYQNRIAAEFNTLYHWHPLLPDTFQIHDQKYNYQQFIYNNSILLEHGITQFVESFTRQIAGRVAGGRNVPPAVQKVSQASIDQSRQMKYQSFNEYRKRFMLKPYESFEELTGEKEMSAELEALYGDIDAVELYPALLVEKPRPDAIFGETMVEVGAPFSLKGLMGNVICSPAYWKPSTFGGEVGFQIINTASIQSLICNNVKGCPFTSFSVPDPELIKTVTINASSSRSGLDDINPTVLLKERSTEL
The assay can be described thus: [[…]-14C]arachidonic acid conversion, radio-TLC. Type of assay: biochemical.

For `COc1ccc2c(c1)c(CC(=O)NCCNC(=O)c1ccc(C(=O)[O-])c(C3=c4cc5c6c(c4Oc4c3cc3c7c4CCCN7CCC3)CCC[N+]=6CCC5)c1)c(C)n2C(=O)c1ccc(Cl)cc1` [compound 3], the values for the concentration for half-maximal inhibition (IC50) on ovine COX-1 and at human COX-2 were > 66 µM and > 4 µM, respectively.
